In patent US8394765B2, “Methods of treating obesity with two different anti-obesity agents” (Amylin Pharmaceuticals LLC, priority 2004, dated 2013):

What was measured:
[1] = DIO rats, amylin and phentermine, body weight and body composition (Example 4); format: in vivo, rat
Procedure: The combination of amylin and catecholaminergic agonist, phentermine, were also tested for effects on changes in body weight and body composition. Phentermine is classically referred to as a catecholaminergic agonist as it actually hits NA/5-HT receptors. DIO male rats were fattened and divided into four treatment groups, as described above. Each group was implanted with subcutaneous osmotic mini-pumps and/or inserted with an oral gavage, designed to deliver vehicle, phentermine (10 mg/kg/day), amylin (100 μg/kg/day) or phentermine (10 mg/kg/day)+amylin (100 μg/kg/day) for a 14 day period. The mini-pump contained either vehicle (50% DMSO in water) or amylin while the oral gavage administered either sterile water or phentermine. Body weight was recorded daily and body composition was measured prior to and after drug treatment using NMR.

[2] = 24-week randomized, double-blind, active-drug-controlled study of pramlintide and metreleptin in overweight and obese subjects (Example 8); format: in vivo, human
Procedure: To evaluate inter alia the safety, tolerability and effect of the combination of an amylin agonist (pramlintide) and a leptin (metreleptin) on changes in body weight, a 24-week, randomized, double-blind, active-drug-controlled, multicenter study was conducted under USFDA approved protocols. Secondary objectives of the study were the determination of the pharmacokinetics of pramlintide and leptin, waist circumference, rate of change in body weight, and patient reported outcomes including for example without limitation perception of well-being related to weight change and mood. The study enrolled overweight and obese subjects with defined BMI ([…]), with enrollment statistics as provided in Table 2. […] Subjects treated with pramlintide/metreleptin lost an average of 25 pounds from the start of the 24-week study compared with an average of 17 pounds for subjects treated with pramlintide alone.
In an initial lead-in phase, all subjects received dietary instructions and treatment with pramlintide at 180 mcg BID for two weeks, followed by pramlintide at 360 mcg BID for two weeks. Subjects who completed the 4-week lead-in period and who lost 2-8 percent body weight during this period were eligible to continue the study. The term “enrolled” (Table 2) refers to subjects (N=177) receiving at least one dose of pramlintide during the lead-in period. The term “non-randomized” refers to subjects not continuing in the study past the lead-in period. The term “evaluable” refers to subjects who completed Visit 9 (Week 16) study procedures and adequately complied with the study protocol.
After the 4-week lead-in period, for the remaining 20 weeks of the study the subjects were randomized in a 2:2:1 ratio to one of three groups with BID treatment of 1) pramlintide 360 mcg/metreleptin 5 mg (“Leptin+Pramlintide”); 2) pramlintide 360 mcg/placebo (“Pramlintide”); or 3) metreleptin 5 mg/placebo (“Leptin”).

[3] = DIO (Levin) rats, amylin and CB-1 antagonist rimonabant, body weight and body composition (Example 5); format: in vivo, rat
Procedure: These rats were developed by Barry Levin from a line of Crl:CD®(SD)BR rats that are prone to become obese on a diet relatively high in fat and energy. They were housed individually in shoebox cages at 22 C in a 12/12-hour light dark cycle. […] Rats were habituated to oral gavage for 1 week prior to treatment. Rimonabant was administered at a range of doses (0.1, 0.3, 1.0, 3.0. 10 mg/kg/day) by oral gavage. Amylin (dissolved in 50% DMSO sterile water) or vehicle was administered by mini-pump (100 μg/kg/day). Rimonabant was always delivered just prior to lights out. Food intake and body weight were measured at 1 and 2 weeks post-treatment. Body composition was measured prior to and after drug treatment using NMR (Echo Medical Systems, Houston, Tex.). For body composition measurements, rats were briefly placed (˜1 min) in a well-ventilated plexiglass tube that was then inserted into a specialized rodent NMR machine. Rats were scanned prior to pump implantation and on the final day of the experiment. This enabled the calculation of changes in actual grams of fat and dry lean tissue (e.g., grams of body fat after treatment−grams of body fat at baseline=change in grams of body fat) and changes in % body composition for fat and dry lean tissue (e.g., % body fat after treatment−% body fat at baseline=change in % body fat).

[4] = DIO rats, amylin and sibutramine, body weight and body composition (Example 4); format: in vivo, rat
Procedure: Rat amylin was dissolved in 50% DMSO in sterile water and sibutramine was dissolved in sterile water. Each group was implanted with subcutaneous osmotic mini-pumps designed to deliver vehicle, sibutramine (3 mg/kg/day) or amylin (100 μg/kg/day) for a 14 day period. Body weight and food intake were recorded daily. Body composition was measured prior to and after drug treatment using NMR (Echo Medical Systems, Houston, Tex.). For body composition measurements, rats were briefly placed (˜1 min) in a well-ventilated plexiglass tube that was then inserted into a specialized rodent NMR machine. Rats were scanned prior to pump implantation and on the final day of the experiment. This enabled the calculation of changes in actual grams of fat and dry lean tissue (e.g., grams of body fat after treatment−grams of body fat at baseline=change in grams of body fat) and changes in % body composition for fat and dry lean tissue (e.g., % body fat after treatment−% body fat at baseline=change in % body fat).

[5] = DIO rats, amylin and PYY(3-36), body weight and body composition (Example 7); format: in vivo, rat
Procedure: Each group was implanted with subcutaneous osmotic mini-pumps, designed to deliver vehicle, PYY(3-36) (1000 μg/kg/day), amylin (100 μg/kg/day) or PYY(3-36) (1000 μg/kg/day)+amylin (100 μg/kg/day) for a 14 day period. PYY(3-36) was administered by mini-pump at a range of doses (100, 200, 400, 800, 1000 μg/kg/day). Amylin 100 μg/kg/day (dissolved in 50% DMSO sterile water), PYY(3-36) (dissolved in 50% DMSO sterile water) or vehicle was administered by mini-pump. Food intake and body weight was recorded daily. Body composition was measured prior to and after drug treatment using NMR (Echo Medical Systems, Houston, Tex.). For body composition measurements, rats were briefly placed (˜1 min) in a well-ventilated plexiglass tube that was then inserted into a specialized rodent NMR machine. Rats were scanned prior to pump implantation and on the final day of the experiment. This enabled the calculation of changes in actual grams of fat and dry lean tissue (e.g., grams of body fat after treatment−grams of body fat at baseline […]) and changes in % body composition for fat and dry lean tissue (e.g., % body fat after treatment−% body fat at baseline=change in % body fat).

[6] = DIO rats, amylin and exendin-4 analog, body weight and body composition (Example 6); format: in vivo, rat
Procedure: […]. Prior to drug administration rats had typically attained a mean body weight of 500 g Exendin-4 analog was administered by minipump at a range of doses (0.3, 1, 3, 10, 30 μg/kg/day). Amylin (dissolved in 50% DMSO in water) or vehicle was administered by mini-pump (100 μg/kg/day). Body weight and food intake was recorded daily. Body composition was measured prior to and after drug treatment using NMR (Echo Medical Systems, Houston, Tex.). For body composition measurements, rats were briefly placed (˜1 min) in a well-ventilated plexiglass tube that was then inserted into a specialized rodent NMR machine. Rats were scanned prior to pump implantation and on the final day of the experiment. This enabled the calculation of changes in actual grams of fat and dry lean tissue (e.g., grams of body fat after treatment−grams of body fat at baseline=change in grams of body fat) and changes in % body composition for fat and dry lean tissue (e.g., % body fat after treatment−% body fat at baseline=change in % body fat).

[7] = compared to human amylin; cited from earlier work
[8] = treated test animals; e.g. provoking marked hyperlactemia followed by hyperglycemia; cited from earlier work
[9] = 4-week pramlintide lead-in, arm of later randomization

For CC(C)(N)Cc1ccccc1 [phentermine], the “changes in body fat (fat mass)” value ([1]; after two weeks, FIG. 11B) was “modest amount of fat mass loss”, the “changes in body protein (lean mass)” value ([1]; after two weeks, FIG. 11C) was “unchanged or tended to be lost” and the “vehicle-corrected decrease in percent body weight” value ([1]; two weeks, phentermine 10 mg/kg/day oral gavage, amylin 100 μg/kg/day, FIG. 11A) was ~5%.
For CC[C@H](C)[C@H](NC(=O)[C@@H]1CCCN1C(=O)CNC(=O)[C@H](Cc1ccccc1)NC(=O)[C@H](CC(N)=O)NC(=O)[C@H](CC(N)=O)NC(=O)[C@H](CO)NC(=O)[C@H](CO)NC(=O)[C@H](Cc1c[nH]cn1)NC(=O)[C@@H](NC(=O)[C@H](CC(C)C)NC(=O)[C@H](Cc1ccccc1)NC(=O)[C@H](CC(N)=O)NC(=O)[C@H](C)NC(=O)[C@H](CC(C)C)NC(=O)[C@H](CCCNC(=N)N)NC(=O)[C@H](CCC(N)=O)NC(=O)[C@@H](NC(=O)[C@H](C)NC(=O)[C@@H]1CSSC[C@H](NC(=O)[C@@H](N)CCCCN)C(=O)N[C@@H](CC(N)=O)C(=O)N[C@@H]([C@@H](C)O)C(=O)N[C@@H](C)C(=O)N[C@@H]([C@@H](C)O)C(=O)N1)[C@@H](C)O)C(C)C)C(=O)N[C@@H](CC(C)C)C(=O)N1CCC[C@H]1C(=O)N1CCC[C@H]1C(=O)N[C@H](C(=O)N[C@@H](CC(N)=O)C(=O)N[C@H](C(=O)NCC(=O)N[C@@H](CO)C(=O)N[C@@H](CC(N)=O)C(=O)N[C@H](C(=O)N[C@@H](Cc1ccc(O)cc1)C(N)=O)[C@@H](C)O)C(C)C)[C@@H](C)O [pramlintide], the “rate of change in body weight, early rate” value ([2]; 0-12 weeks, evaluable population, FIG. 24) was −0.23±0.04 kg/week, the “Mean Change in Body Weight” value ([2]; 4-week lead-in period in which all subjects received pramlintide (180 then 360 mcg BID), arm of later randomization) was -3.65 kg and the “% Weight Loss During Lead-in <5% (share of subjects)” value [2, 9] was 77%. For the same molecule, the “% Weight Loss During Lead-in ≧5% (share of subjects)” value [2, 9] was 23%, the “rate of change in body weight, late rate” value ([2]; 12-20 weeks, evaluable population, FIG. 24) was −0.02±0.04 kg/week and the “weight reduction effect toward the end of the study (late rate, in words)” value ([2]; 12-20 weeks, FIG. 24) was “approached a late rate of zero”. The “course of weight loss towards the end of the study” value ([2]; human subjects, 24-week study) was “weight had stabilized towards the end of the 24-week study”, the “body weight reduction on average” value ([2]; human subjects, end of 24-week study, pramlintide 360 mcg BID, metreleptin 5 mg BID, p<0.001) was 8.4% and the “average weight lost from the start of the 24-week study” value ([2]; human subjects, pramlintide 360 mcg BID, metreleptin 5 mg BID) was 17 pounds.
For Cc1c(C(=O)NN2CCCCC2)nn(-c2ccc(Cl)cc2Cl)c1-c1ccc(Cl)cc1 [rimonabant], the “changes in body fat (fat mass)” value ([3]; after two weeks, FIG. 12B) was “Fat mass loss was evident”, the “changes in body protein (lean mass)” value ([3]; after two weeks, FIG. 12C) was “relatively equivalent increase in lean (protein) mass” and the “vehicle-corrected decrease in percent body weight” value ([3]; two weeks, rimonabant 3 mg/kg/day oral gavage, amylin 100 μg/kg/day, FIG. 12A) was ~4%.
In the case of CC(C)CC(N(C)C)C1(c2ccc(Cl)cc2)CCC1 (stereo not drawn) [sibutramine], the “changes in body fat (fat mass)” value ([4]; after two weeks, FIG. 10B) is reported as “Fat mass loss was evident”, the “changes in body protein (lean mass)” value ([4]; after two weeks, FIG. 10C) is reported as “relatively unchanged” and the “vehicle-corrected decrease in percent body weight” value ([4]; two weeks, sibutramine 3 mg/kg/day, amylin 100 μg/kg/day, FIG. 10A) is reported as ~6%.
With PYY(3-36) the “changes in body fat (fat mass loss)” value ([5]; after two weeks, order PYY(3-36) alone, amylin alone, combination, FIG. 16B) was “Increasing amount of fat mass loss” and the “vehicle-corrected decrease in percent body weight” value ([5]; two weeks, PYY(3-36) 1000 μg/kg/day, amylin 100 μg/kg/day, FIG. 16A) was ~9%.
In the case of ^14Leu-exendin-4 [Exendin-4 analog], the “changes in body fat (fat mass)” value ([6]; after two weeks, FIG. 15B) is reported as “Fat mass loss was evident”, the “changes in body protein (lean mass)” value ([6]; after two weeks, FIG. 15C) is reported as “relatively equivalent increase in lean (protein) mass” and the “vehicle-corrected decrease in percent body weight” value ([6]; two weeks, exendin-4 analog 10 μg/kg/day, amylin 100 μg/kg/day, FIG. 15A) is reported as ~6%.
For “^18Arg^25,28Pro-h-amylin (KCNTATCATQRLANFLVRSSNNFGPILPSTNVGSNTY)”, the “solubility and stability characteristics” value [7] is listed as “more desirable solubility and stability characteristics” and the “amylin activity in vivo” value [8] is listed as “show amylin activity in vivo”.
In the case of “^25Pro^26Val^28,29 Pro-h-amylin (KCNTATCATQRLANFLVHSSNNFGPVLPPTNVGSNTY)”, the “solubility and stability characteristics” value [7] is listed as “more desirable solubility and stability characteristics”.
For “^28Pro-h-amylin (KCNTATCATQRLANFLVHSSNNFGAILPSTNVGSNTY)”, the “amylin activity in vivo” value [8] is given as “show amylin activity in vivo”.
For “des-^1Lys-h-amylin (CNTATCATQRLANFLVHSSNNFGAILSSTNVGSNTY)”, the “amylin activity in vivo” value [8] is given as “show amylin activity in vivo”.
For “des-^1Lys^18Arg^25,28Pro-h-amylin (CNTATCATQRLANFLVHRSNNFGPILPSTNVGSNTY)”, the “amylin activity in vivo” value [8] is listed as “show amylin activity in vivo”.
In the case of metreleptin, the “weight reduction effect toward the end of the study (late rate, in words)” value ([2]; 12-20 weeks, FIG. 24) is reported as “approached a late rate of zero”.
